Test [1] has as its system TC-1 cells. The format is in vivo, C57BL/6 mice. The note with it: for enhancement of the effect of CyaA-E7 by DOX: DOX day 24, intra-tumorally or intravenously, CyaA-E7 day 25; for effect on tumor growth of TLR ligand alone: TLR ligand alone without CyaA-E7, day 25; for survival percentage: TLR ligand given i.v. with 50 ug CyaA-E7 on day 25, pU and CpGs complexed with DOTAP, survival on day 100; for increase in tumor regression: TLR ligand given with CyaA-E7 on day 25, versus CyaA-E7 alone; for tumor growth after CTX alone: CTX 2.5 mg i.p. alone, day 24; for mice that totally eradicated their tumors: low dose CTX (2.5 mg i.p.) day 24, 24 h before 50 ug CyaA-E7. On the procedure:
(§1) Specific pathogen-free 5-week-old female C57BL/6 mice were purchased from Charles River (L'Arbresle, France) and were kept in the Pasteur Institute animal facilities under pathogen-free conditions with water and food ad libitum. C57BL/6-RAG1^−/− mice were obtained from the Jackson Laboratory, USA. Experiments involving animals were conducted according to the institutional guidelines for animal care.
TC-1 cells expressing HPV16-E6 and HPV16-E7 proteins derived from primary mouse lung epithelial cells were obtained from the American Type Culture Collection (LGC Promochem, Molsheim, France) (14). EL4-E7 cells, a mouse lymphoma expressing HPV16-E7 (15). Cells were maintained in RPMI 1640 with GlutaMAX supplemented with 10% heat-inactivated fetal calf serum, 100 units/ml penicillin, 100 μg/ml streptomycin, 0.4 mg/ml geneticin and 5×10^−5 mol/12-mercaptoethanol (Life Technologies, Cergy-Pontoise, France).
(§2) Tumor cells lines (5×10^5 TC-1 cells or 4×10^6 EL4-E7 cells) were inoculated into the shaved left back of C57BL/6 mice in 200 μl volume of PBS. Tumor size, presented as the average of two perpendicular diameters (millimeters), was measured at regular intervals.
CpG ODNs (Type A, CpG 2216: 5′-[…]-3′ (SEQ ID NO: 6); Type B, CpG 1826: 5′-[…]-3′ (SEQ ID NO: 7)) were synthesized by Proligo (Paris, France). Boldface nucleotides correspond to phosphorothioate backbone. Polyuridine (pU) was purchased from Sigma (Steinheim, Germany), R848 from PharmaTech (Shanghai, China) and polyinosinic-polycytidylic acid (PIC) from Invivogen (San Diego, Calif., USA). Thirty μg of CpG ODNs or pU were diluted in 50 μl of Optimen medium (Gibco, Grand Island, N.Y., USA) and mixed with 60 μg of DOTAP (Roche, Mannheim, Germany) diluted in 100 μl of Optimen. The rest of the reagents were diluted in PBS before injection. Cyclophosphamide (CTX) (Sigma, Steinheim, Germany) and doxorubicin (DOX) (Calbiochem, La Jolla, Calif., USA) were diluted respectively in PBS and in sterile water before injection. The different antigenic formulations and adjuvants were injected simultaneously except chemotherapeutic agents that were given 24 h before vaccine. Intravenous administrations were performed by retroorbital injection in a volume of 200 μl, intratumoral administrations were done by injection in a volume of 50 μl and subcutaneous administration were performed in 200 μl.
Tumor growth data were analyzed by non-linear mixed effect models using Monolix software (http://www.math.u-psud.fr/˜lavielle/monolix/). Mean diameters of tumors over time were fitted using the model described in (17) and treatments were compared using the Likelihood Ratio test. Kaplan-Meier plots were used to analyzed survival, and a log rank test was used to examine statistical significance of differences in the survival curves using Prism software (GraphPad Software, Inc. San Diego, USA). Data from in vivo CTL and tetramer staining were compared by ANOVA followed by Dunnett posttest. p values less than 0.05 were considered to be statistically significant.

Test [2] relates to E749-57 peptide-pulsed splenocytes. Description: In vivo killing assay (in vivo CTL). The note with it: CTX 24 h before CyaA-E7, tumor-bearing mice day 25. On the set-up: species or system C57BL/6 mice. On the procedure:
FIG. 8. Analysis of tumor specific immune response in control and tumor-bearing mice after different treatments. […] Twenty-five days later, control and tumor-bearing mice were injected with either 50 μg of control CyaA or of CyaA-E7, with PBS or with 30 μg of CpG-B or pU/DOTAP, 25 μg of PIC, 50 μg of R848, 2.5 mg of CTX (24 h before) or with CTX and CpG-B/DOTAP. Percentage of CD8^+ tetramer^+ cells in control (A) and in tumor-bearing mice (B). At day 7 after treatment, mice were sacrificed and the percentage of tetramer positive cells was analyzed by flow cytometry. In vivo CTL in control (C) and in tumor-bearing mice (D). […] Twenty-four hours later, spleens were removed and single-cell suspensions were analyzed by flow cytometry to determine the ratio of CFSE^high to CFSE^low cells. […] In vivo cytolytic activity was low but detected (E and F).
Naïve spleen cells were pulsed for 30 min with 9 μM E749-57 peptide at 37° C. […] Twenty-four hours later, spleens were removed and single-cells suspensions were analyzed by flow cytometry to determine the ratio of CFSE^high to CFSE^low cells. The percentage of specific lysis was calculated as follow: percent-specific lysis=100−(100×(% CFSE^highimmunized/% CFSE^low immunized)/(% CFSE^high control/% CFSE^low control)).

Test [3] relates to T regulatory cells, myeloid suppressor cells, tumor-specific CD8+ T cells and NK cells. Description: Flow cytometric analysis of immune cells in spleen, draining lymph nodes and tumor after tritherapy. The class given is in vivo, C57BL/6 mice. Here is the method:
FIG. 9. Changes in immune cells after tritherapy on day 25. […] Groups of mice were sacrificed before treatment (day 0), 24 hour after CTX alone (day 1) or on days 4, 7 or 11 after tritherapy administration. Spleen, tumor draining lymph nodes and tumor were excised, ground to prepare the cell suspensions, stained and analyzed by flow cytometry. Pooled data of two experiments are shown (n=4-6 mice). Bars represent mean values and the error bars correspond to standard error of the mean. *<0.05**<0.01. A) Percentage of CD4^+ cells that express CD25 and FoxP3. B) Percentage of CD4^+ cells that are CD25^− and FoxP3^+. C) Percentage of CD4^+ cells that express FoxP3. D) Percentage of CD8^+ cells that are tetramer^+ and CD44^+. E) Percentage of CD11c^+ cells. F) Percentage of CD11b^+ cells. G) Percentage of GR1^+ cells. H) Percentage of CD11b^+GR1^+ positive cells.
FIG. 11. Phenotype of myeloid cells induced by tritherapy and by tumor growth. […] Tritherapy treated mice received on day 24, 2.5 mg CTX i.p and 24 h later, 50 μg CyaA-E7 and 30 μg CpG-B/DOTAP. PBS treated mice received 200 μl of PBS on day 25. […] Spleens were excised, ground to prepare the cell suspensions, stained and analyzed by flow cytometry. […]
FACScalibur (Becton Dickinson, Franklin Lakes, N.J., USA) was used for flow cytometry and events were analyzed with CELLQuest software (Becton Dickinson, Franklin Lakes, N.J., USA).

Test [4] deals with TC-1 cells. The note with it: CTX 2.5 mg i.p. day 24; log-rank p=0.22 vs PBS. Here is the method: as §1, §2

Data on six compounds can be found in patent publication US9095537B2, “Therapy of cancer based on targeting adaptive, innate and/or regulatory component of the immune response” (priority 2006, dated 2015).

Like-named read-outs stand apart in the source and are kept apart here.

Consider `COc1cccc2c1C(=O)c1c(O)c3c(c(O)c1C2=O)C[C@@](O)(C(=O)CO)C[C@@H]3O[C@H]1C[C@H](N)[C@H](O)[C@H](C)O1` [DOX, Doxorubicin], for which the “enhancement of the effect of CyaA-E7 by DOX” value was “did not enhance the effect of CyaA-E7” in the test on TC-1 cells [1] and “had no effect” in the test on TC-1 cells [1] (listed as doxorubicin).
With polyinosinic-polycytidylic acid [PIC], in the test with TC-1 cells [1], the “effect on tumor growth of TLR ligand alone” value is on record as “none of these TLR ligands administered alone had any effect on the tumor growth”, the survival percentage came out at 41% and the “increase in tumor regression” value was “significant increase in tumor regression”.
For 5′-TCCATGACGTTCCTGACGTT-3′ [CpG-B], in the test on TC-1 cells [1], the “effect on tumor growth of TLR ligand alone” value is given as “none of these TLR ligands administered alone had any effect on the tumor growth” and the survival percentage is recorded as 50%.
5′-GGGGGACGATCGTCGGGGGG-3′ [CpG-A] yielded a survival percentage in the test with TC-1 cells [1] of 58%.
Turning to `O=P1(N(CCCl)CCCl)NCCCO1` (centres unmarked) [CTX, Cyclophosphamide], the “immune response induced by CyaA-E7” value in test [2] is given as “did not enhance the immune response induced by CyaA-E7”. Besides, the “percentage of CD25+FoxP3+/CD4+ in tumor-infiltrated lymphocytes” value in test [3] (four days after administration of cyclophosphamide, from around 50%) is given as “below 30%”. The lymphodepletion entry in test [3] (spleen and lymph node, tumor-bearing mice, CTX 2.5 mg i.p. day 24) is “transient lymphodepletion in spleen and lymph node that reverted by day 7”. The “antitumor efficacy of combined CTX and CyaA-E7 at higher CTX dose” value in the test with TC-1 cells [1] (300 mg/kg versus 100 mg/kg CTX i.p. day 24, CyaA-E7 day 25, log-rank p=0.95) is recorded as “not improved”. Further, in the test on TC-1 cells [1], the “tumor growth after CTX alone” value is “significantly delayed tumor growth but this effect was transient and was followed by tumor relapse”; the “mice that totally eradicated their tumors” value turned out to be 58%. In the test with TC-1 cells [1] (listed as cyclophosphamide), the “tumor growth after CTX alone” value is reported as “could transiently control tumor growth but was not able to induce the complete eradication” and the “mice that totally eradicated their tumors” value is listed as “around 60%”. Also, the “tumor growth after CTX plus CyaA-E7” value in the test on TC-1 cells [1] (low dose CTX 24 h before CyaA-E7, day 24/25) is “delayed growth of all tumors”. In addition, the “tumor growth delay by CTX alone in RAG1-/- mice” value in the test on TC-1 cells [4] is “not observed”.
polyuridine [pU]: in the test with TC-1 cells [1], the survival percentage came out at 41% and the “increase in tumor regression” value was “significant increase in tumor regression”.
